Data as given in the CheMixHub ionic liquid set.

Test: xn = mol fraction of the nth substance listed

OCCO + CC[n+]1ccn(C)c1.O=C([O-])C(F)(F)F
100 kPa, x1 = 1
Conditions | viscosity [mPa·s]
293.15 K | 20.8
298.15 K | 16.8
303.15 K | 13.8
313.15 K | 9.52

CCCCCC[N+](C)(C)C.[Br-] + O
298.15 K, 101 kPa
Conditions | electrical conductivity [S/m] | viscosity [mPa·s]
x1 = 0.000888 | – | 0.9148
x1 = 0.001394 | – | 0.9261
x1 = 0.002133 | – | 0.9439
x1 = 0.003331 | – | 0.9727
x1 = 0.004173 | – | 0.9962
x1 = 0.004485 | 1.84 | –
x1 = 0.005042 | – | 1.019
x1 = 0.005996 | – | 1.043
x1 = 0.006874 | – | 1.066
x1 = 0.007743 | – | 1.088
x1 = 0.008657 | – | 1.113
x1 = 0.0096 | – | 1.138
x1 = 0.01046 | – | 1.162
x1 = 0.01139 | – | 1.189
x1 = 0.01245 | – | 1.222

CN1CCN(C)C1=O + CCCCCCCCn1cc[n+](C)c1.[Cl-]
100 kPa
Conditions | viscosity [mPa·s]
288.15 K, x2 = 0.3018 | 87.7
288.15 K, x2 = 0.4964 | 614
293.15 K, x2 = 0.3991 | 158.4
303.15 K, x2 = 0.2056 | 16.57
303.15 K, x2 = 0.4964 | 230
308.15 K, x2 = 0.7994 | 1104
313.15 K, x2 = 0.4964 | 129.8
313.15 K, x2 = 0.7994 | 774
318.15 K, x2 = 0.4964 | 100.2
323.15 K, x2 = 0.4964 | 79.4
328.15 K, x2 = 0.105 | 3.05
328.15 K, x2 = 0.3991 | 31.3
333.15 K, x2 = 0.7007 | 148

[N-]=C=S.[NH4+] + CC[n+]1ccn(C)c1.N#C[S-]
100 kPa
Conditions | electrical conductivity [S/m] | viscosity [mPa·s]
313.15 K, x1 = 0.039 | 3.12 | 16.11
318.15 K, x1 = 0.039 | – | 14.28
318.15 K, x1 = 0.1395 | 3.28 | 16.71
323.15 K, x1 = 0.1395 | 3.71 | 14.61
328.15 K, x1 = 0.039 | – | 11.19
333.15 K, x1 = 0.099 | – | 10.92
343.15 K, x1 = 0.1395 | – | 9.2
348.15 K, x1 = 0.099 | – | 8.08
353.15 K, x1 = 0.099 | – | 7.28
353.15 K, x1 = 0.1395 | – | 7.48

CCCC[N+](C)(C)C[c-]1cccc1.O=S(=O)([N-]S(=O)(=O)C(F)(F)F)C(F)(F)F.[Fe+2].c1cc[cH-]c1 + CC#N
100 kPa
Conditions | electrical conductivity [S/m]
298 K, x1 = 0.03 | 2.17
303 K, x1 = 0.1 | 1.88
308 K, x1 = 0.08 | 2.2
308 K, x1 = 0.2 | 0.945
313 K, x1 = 0.07 | 2.47
318 K, x1 = 0.01 | 1.58
318 K, x1 = 0.06 | 2.67
318 K, x1 = 0.08 | 2.47
318 K, x1 = 0.15 | 1.58
318 K, x1 = 0.2 | 1.14
323 K, x1 = 0.01 | 1.64
323 K, x1 = 0.2 | 1.24
328 K, x1 = 0.05 | 2.95
328 K, x1 = 0.12 | 2.19
333 K, x1 = 0.01 | 1.75
333 K, x1 = 0.02 | 2.5
333 K, x1 = 0.03 | 2.92
333 K, x1 = 0.07 | 3
338 K, x1 = 0.05 | 3.2
338 K, x1 = 0.07 | 3.15
343 K, x1 = 0.07 | 3.28
343 K, x1 = 0.08 | 3.15
343 K, x1 = 0.15 | 2.19
348 K, x1 = 0.02 | 2.76
348 K, x1 = 0.07 | 3.42
348 K, x1 = 0.08 | 3.3
348 K, x1 = 0.12 | 2.74

O=S(=O)([N-]S(=O)(=O)C(F)(F)F)C(F)(F)F.[Li+] + O
Conditions | electrical conductivity [S/m] | viscosity [mPa·s]
267.18 K, 100 kPa, x2 = 0.8271 | 1.02 | –
272.15 K, 100 kPa, x2 = 0.8855 | 2.04 | –
282.32 K, 100 kPa, x2 = 0.7538 | 0.699 | –
283 K, 101 kPa, x1 = 0.2649 | 0.62 | –
288.36 K, 100 kPa, x2 = 0.7538 | 0.861 | –
292.1 K, 100 kPa, x1 = 0.0039 | 0.966 | –
292.3 K, 100 kPa, x2 = 0.8065 | 1.98 | –
293 K, 100 kPa, x1 = 0.25 | – | 23.6
293 K, 101 kPa, x1 = 0.2649 | 0.89 | 69.2
296.88 K, 100 kPa, x2 = 0.8271 | 2.71 | –
298 K, 101 kPa, x1 = 0.005377 | 1.2 | 1.11
298 K, 101 kPa, x1 = 0.05933 | 5.79 | 3.11
298 K, 101 kPa, x1 = 0.112 | – | 5.56
298 K, 101 kPa, x1 = 0.1134 | 4.7 | –
298 K, 101 kPa, x1 = 0.1778 | 2.99 | –
298 K, 101 kPa, x1 = 0.2128 | 2.2 | 22.22
298 K, 101 kPa, x1 = 0.2639 | 0.97 | –
298 K, 101 kPa, x1 = 0.2649 | – | 51.3
298.1 K, 101 kPa, x1 = 0.2649 | 1.04 | 55.3
298.15 K, 100 kPa, x1 = 0.112 | – | 5.2
298.15 K, 100 kPa, x1 = 0.1896 | – | 15.8
298.15 K, 100 kPa, x1 = 0.2333 | – | 30.7
298.15 K, 100 kPa, x1 = 0.2547 | – | 42.3
298.15 K, 100 kPa, x1 = 0.2741 | – | 54.1
301.65 K, 100 kPa, x2 = 0.8271 | 3.13 | –
302.07 K, 100 kPa, x2 = 0.7538 | 1.38 | –
302.07 K, 100 kPa, x2 = 0.9148 | 5.85 | –
302.88 K, 100 kPa, x2 = 0.8495 | 4.06 | –
303 K, 101 kPa, x1 = 0.2649 | 1.22 | 45.4
307.05 K, 100 kPa, x2 = 0.8065 | 2.85 | –
307.24 K, 100 kPa, x2 = 0.9761 | 4.9 | –
308.08 K, 100 kPa, x2 = 0.7538 | 1.61 | –
308.15 K, 100 kPa, x1 = 0.112 | – | 4.3
308.15 K, 100 kPa, x1 = 0.1896 | – | 11.5
308.15 K, 100 kPa, x1 = 0.2333 | – | 21.5
308.15 K, 100 kPa, x1 = 0.2547 | – | 29
308.15 K, 100 kPa, x1 = 0.2741 | – | 36.1
312.24 K, 100 kPa, x2 = 0.8065 | 3.3 | –
312.86 K, 100 kPa, x2 = 0.6988 | 0.916 | –
313 K, 101 kPa, x1 = 0.2649 | 1.6 | 30.9
315.76 K, 100 kPa, x2 = 0.7857 | 2.85 | –
317.41 K, 100 kPa, x2 = 0.8271 | 4.37 | –
317.41 K, 100 kPa, x2 = 0.8495 | 5.49 | –
318.15 K, 100 kPa, x1 = 0.112 | – | 3.4
318.15 K, 100 kPa, x1 = 0.1896 | – | 8.6
318.15 K, 100 kPa, x1 = 0.2333 | – | 15.8
318.15 K, 100 kPa, x1 = 0.2547 | – | 20.9
318.15 K, 100 kPa, x1 = 0.2741 | – | 25.5
318.47 K, 100 kPa, x2 = 0.6988 | 1.07 | –
320.96 K, 100 kPa, x2 = 0.7857 | 3.2 | –
321.15 K, 100 kPa, x2 = 0.9761 | 6.42 | –
322.41 K, 100 kPa, x2 = 0.7538 | 2.29 | –
323 K, 101 kPa, x1 = 0.2649 | 2.04 | 21.8
327.61 K, 100 kPa, x2 = 0.8271 | 5.33 | –
327.8 K, 100 kPa, x2 = 0.6988 | 1.36 | –
328.15 K, 100 kPa, x1 = 0.112 | – | 2.8
328.15 K, 100 kPa, x1 = 0.1896 | – | 6.6
328.15 K, 100 kPa, x1 = 0.2333 | – | 12
328.15 K, 100 kPa, x1 = 0.2547 | – | 15.6
328.15 K, 100 kPa, x1 = 0.2741 | – | 18.7
329.06 K, 100 kPa, x2 = 0.7857 | 3.73 | –
331.74 K, 100 kPa, x2 = 0.8271 | 5.85 | –
331.96 K, 100 kPa, x2 = 0.8065 | 4.85 | –
332.16 K, 100 kPa, x2 = 0.8855 | 8.87 | –
332.58 K, 100 kPa, x2 = 0.9148 | 10.1 | –
333 K, 100 kPa, x2 = 0.7538 | 2.85 | –
333 K, 100 kPa, x2 = 0.8495 | 7.06 | –
333 K, 101 kPa, x1 = 0.2649 | 2.58 | 16.2
334.65 K, 100 kPa, x2 = 0.7857 | 4.15 | –
336.52 K, 100 kPa, x2 = 0.8855 | 9.74 | –
339.84 K, 100 kPa, x2 = 0.7857 | 4.6 | –
341.52 K, 100 kPa, x2 = 0.8271 | 6.77 | –
341.94 K, 100 kPa, x1 = 0.0039 | 2.36 | –
342.13 K, 100 kPa, x2 = 0.6601 | 1.19 | –
342.75 K, 100 kPa, x2 = 0.8065 | 5.73 | –
343.17 K, 100 kPa, x2 = 0.7538 | 3.44 | –
347.11 K, 100 kPa, x1 = 0.0039 | 2.52 | –
347.33 K, 100 kPa, x2 = 0.6988 | 2.11 | –
347.53 K, 100 kPa, x2 = 0.9761 | 9.34 | –
347.94 K, 100 kPa, x2 = 0.8495 | 8.69 | –
352.3 K, 100 kPa, x2 = 0.8855 | 11.8 | –
352.92 K, 100 kPa, x2 = 0.8065 | 6.69 | –
356.24 K, 100 kPa, x2 = 0.7857 | 5.78 | –
357.3 K, 100 kPa, x2 = 0.8855 | 12.1 | –
357.7 K, 100 kPa, x2 = 0.9148 | 13.9 | –

CCCCn1cc[n+](C)c1C.O=S(=O)([N-]S(=O)(=O)C(F)(F)F)C(F)(F)F + O=C1CCCO1
100 kPa, frequency 0.005 MHz
Conditions | electrical conductivity [S/m]
293.15 K, x2 = 0.1014 | 0.207
293.15 K, x2 = 0.3 | 0.302
293.15 K, x2 = 0.8001 | 1.12
298.15 K, x2 = 0.8996 | 1.3
303.15 K, x2 = 0.3 | 0.451
303.15 K, x2 = 0.9468 | 1.01
308.15 K, x2 = 0.3 | 0.538
308.15 K, x2 = 0.7012 | 1.28
313.15 K, x2 = 0.1014 | 0.479
313.15 K, x2 = 0.7012 | 1.43
318.15 K, x2 = 0 | 0.51
318.15 K, x2 = 0.7012 | 1.58
323.15 K, x2 = 0 | 0.599
